The values that follow are results of earlier work, collected in patent publication US12329899B2, “Dry powder inhaler and methods of use” (Aspeya US Inc., priority 2012, dated 2025).

Structures are written as SMILES.

The conditions of data set [1]: 75 mg/day.
For data set [2] the following is noted: any dose above 30 mg daily.
For data set [3] the following is noted: oral solution of 650 mg, four male subjects.
In data set [4] the test system is platelet. As to conditions: 50 mg/day, some patients; the remainder needed over 50 mg/day.
The conditions of data set [5]: oral administration, 325 mg.

For the compound `CC(=O)Oc1ccccc1C(=O)O` [aspirin, acetylsalicylic acid], the “loss or inactivation of the oral dosage due to the first pass effect in the gut and liver” value (oral administration) is “approximately ⅔”. For the same compound, the “fraction of the dose bioavailable due to the first pass effect” value (taken orally) was “about one to two-thirds”. Moreover, the “gastrointestinal side-effects, bleeding episodes” value in data set [1] is “significant excess of bleeding episodes”. The “risk of stroke or death” value in data set [1] (patients with cerebrovascular ischaemic events) is on record as “significantly reduces the risk of stroke or death”. Also, in data set [2], the vascular events prevented was 13%. Besides, the “dose that reached the peripheral circulation intact (AUC oral vs intravenous)” value in data set [3] was 68%. Besides, in data set [4], the platelet inhibition result is “satisfactory platelet inhibition”. For the same compound, in data set [5], the “increase of major gastrointestinal and extracranial bleeds” value is listed as “over 50%”.
